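Following 48 hours of exposure in 96-well plates, responses at five concentrations were used to interpolate endpoints linearly. GI50 marks 50% less growth.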 Active and inactive are the calls of the source. Rule as the data show it: active = GI50 up to about 1.1 µM and inactive = higher.
How the values were obtained:
Test in all cases: NCI tumour cell line growth inhibition, 48 h
NCI-H460 = tested on: NCI-H460
UACC-62 = tested on: UACC-62
CCRF-CEM = tested on: CCRF-CEM
OVCAR-4 = tested on: OVCAR-4
ACHN = tested on: ACHN
SW-620 = tested on: SW-620
RXF 393 = tested on: RXF 393
SK-MEL-28 = tested on: SK-MEL-28
SK-OV-3 = tested on: SK-OV-3
RPMI-8226 = tested on: RPMI-8226
LOX IMVI = tested on: LOX IMVI
SK-MEL-2 = tested on: SK-MEL-2
786-0 = tested on: 786-0
HCT-15 = tested on: HCT-15
CAKI-1 = tested on: CAKI-1
NCI-H522 = tested on: NCI-H522
HCC 2998 = tested on: HCC 2998

| Compound | GI50 (NCI-H460) | GI50 (UACC-62) | GI50 (CCRF-CEM) | GI50 (OVCAR-4) | GI50 (ACHN) | GI50 (SW-620) | GI50 (RXF 393) | GI50 (SK-MEL-28) | GI50 (SK-OV-3) | GI50 (RPMI-8226) | GI50 (LOX IMVI) | GI50 (SK-MEL-2) | GI50 (786-0) | GI50 (HCT-15) | GI50 (CAKI-1) | GI50 (NCI-H522) | GI50 (HCC 2998) |
| --- | --- | --- | --- | --- | --- | --- | --- | --- | --- | --- | --- | --- | --- | --- | --- | --- | --- |
| CCc1cccc(C)c1N1C(=O)C(=O)C(c2nc3ccccc3o2)/C(=N/NC(=S)NN)C1=O (configuration not stated) | > 100 µM (inactive) | > 100 µM (inactive) | > 100 µM (inactive) | > 100 µM (inactive) | > 100 µM (inactive) | > 100 µM (inactive) | > 100 µM (inactive) | > 100 µM (inactive) | > 100 µM (inactive) | > 100 µM (inactive) | > 100 µM (inactive) | > 100 µM (inactive) | > 100 µM (inactive) | > 100 µM | > 100 µM (inactive) | > 100 µM (inactive) |  |
| N#CC(C(=O)/C(=N\NC(N)=O)C(C#N)c1ccc(Cl)cc1)c1ccc(Cl)cc1 (configuration not stated) | > 100 µM (inactive) | > 100 µM (inactive) | > 100 µM (inactive) | > 100 µM (inactive) | > 100 µM (inactive) | > 100 µM (inactive) | > 100 µM (inactive) | > 100 µM (inactive) | > 100 µM (inactive) | > 100 µM (inactive) | > 100 µM (inactive) | > 100 µM (inactive) | > 100 µM (inactive) | > 100 µM |  | > 100 µM (inactive) |  |
| CCCC(=O)OCC(O)CO (configuration not stated) | 4570 µM (inactive) | 2170 µM (inactive) | 4500 µM (inactive) | > 5000 µM (inactive) | 4830 µM (inactive) | > 5000 µM (inactive) | 3090 µM (inactive) | > 5000 µM (inactive) | 4970 µM (inactive) | 2990 µM (inactive) | > 5000 µM (inactive) | 3780 µM (inactive) | > 5000 µM (inactive) | > 5000 µM | 2040 µM (inactive) | 3740 µM (inactive) |  |
| C[Si](C)(C)/C=C\CCO | > 100 µM (inactive) | > 100 µM (inactive) | > 100 µM (inactive) |  | > 100 µM (inactive) | > 100 µM (inactive) | > 100 µM (inactive) | > 100 µM (inactive) | > 100 µM (inactive) | > 100 µM (inactive) | > 100 µM (inactive) | > 100 µM (inactive) | > 100 µM (inactive) | > 100 µM |  | > 100 µM (inactive) | > 100 µM (inactive) |
| COC(=O)C1=C(c2cc(OC)c(OC)c(OC)c2)OC(c2ccc3c(c2)OCO3)C1 (configuration not stated) | 31.7 µM (inactive) | 5.05 µM (inactive) | 27.6 µM (inactive) | 40.5 µM (inactive) | 26.3 µM (inactive) | 18.1 µM (inactive) | 49 µM (inactive) | 48 µM (inactive) | 45.5 µM (inactive) | 33.4 µM (inactive) | 6.28 µM (inactive) |  | 35.2 µM (inactive) | 19.1 µM | 22.6 µM (inactive) |  | 28.4 µM (inactive) |
| CNC(=S)NC1CCCCC1NC(=S)NC (configuration not stated) | > 100 µM (inactive) | > 100 µM (inactive) | > 100 µM (inactive) | > 100 µM (inactive) | > 100 µM (inactive) | > 100 µM (inactive) |  | > 100 µM (inactive) | > 100 µM (inactive) | > 100 µM (inactive) | > 100 µM (inactive) | > 100 µM (inactive) | > 100 µM (inactive) | > 100 µM | > 100 µM (inactive) | > 100 µM (inactive) | > 100 µM (inactive) |
| O=C(N/C(=C\c1cccc([N+](=O)[O-])c1)c1nc2ccccc2[nH]1)c1ccccc1 | 87.1 µM (inactive) | 88.1 µM (inactive) | 34.4 µM (inactive) | > 100 µM (inactive) | 51.4 µM (inactive) | > 100 µM (inactive) |  | 18.3 µM (inactive) | > 100 µM (inactive) | 40.8 µM (inactive) |  | 66.7 µM (inactive) | 55.2 µM (inactive) | 26.1 µM | 59.4 µM (inactive) | 36.8 µM (inactive) | 94.4 µM (inactive) |
| CC(CC(=O)N1C(=O)C(C)(C)[C@@H](O)[C@H]1CC(C)C(Cl)(Cl)Cl)C(Cl)(Cl)Cl (some centres not stated) | > 100 µM (inactive) | > 100 µM (inactive) | > 100 µM (inactive) | > 100 µM (inactive) | > 100 µM (inactive) | > 100 µM (inactive) |  |  | > 100 µM (inactive) | > 100 µM (inactive) | > 100 µM (inactive) |  | > 100 µM (inactive) | > 100 µM | > 100 µM (inactive) | > 100 µM (inactive) | > 100 µM (inactive) |
| Cc1cn(C2CC(OC3CCCCO3)C(CO)O2)c(=O)[nH]c1=O (configuration not stated) | > 100 µM (inactive) |  | > 100 µM (inactive) | > 100 µM (inactive) | > 100 µM (inactive) | > 100 µM (inactive) | > 100 µM (inactive) | > 100 µM (inactive) | > 100 µM (inactive) | > 100 µM (inactive) | > 100 µM (inactive) | > 100 µM (inactive) | > 100 µM (inactive) | > 100 µM |  | > 100 µM (inactive) | > 100 µM (inactive) |
| Cc1ccc(C2=C(c3ccc(C)cc3)C(c3ccc(C)cc3)=C(c3ccc(C)cc3)C2=O)cc1 | > 100 µM (inactive) |  | > 100 µM (inactive) |  | > 100 µM (inactive) | > 100 µM (inactive) | > 100 µM (inactive) | > 100 µM (inactive) | > 100 µM (inactive) | > 100 µM (inactive) |  | > 100 µM (inactive) | > 100 µM (inactive) | > 100 µM |  | > 100 µM (inactive) |  |
| CC(C)(C)NC(=O)NC12CC3CC(CC(F)(C3)C1)C2 | > 100 µM (inactive) | > 100 µM (inactive) | > 100 µM (inactive) |  | > 100 µM (inactive) | > 100 µM (inactive) | > 100 µM (inactive) | > 100 µM (inactive) | > 100 µM (inactive) | > 100 µM (inactive) | > 100 µM (inactive) | > 100 µM (inactive) | > 100 µM (inactive) |  |  | > 100 µM (inactive) | > 100 µM (inactive) |
| O=C(CCc1n[nH]c(=S)o1)Nc1cc(Cl)ccc1Cl | 51.3 µM (inactive) | > 100 µM (inactive) | 33.8 µM (inactive) | > 100 µM (inactive) | 61.1 µM (inactive) | 15.3 µM (inactive) |  | > 100 µM (inactive) | > 100 µM (inactive) | 19.1 µM (inactive) |  |  | 29.6 µM (inactive) | 20.7 µM | > 100 µM (inactive) |  | > 100 µM (inactive) |
| CCc1ccc(/C(C)=N/NC(N)=S)cc1 |  | 31.8 µM (inactive) |  | 37.6 µM (inactive) |  |  | 47.3 µM (inactive) | > 100 µM (inactive) | > 100 µM (inactive) | > 100 µM (inactive) |  | > 100 µM (inactive) | > 100 µM (inactive) |  | 70 µM (inactive) |  | > 100 µM (inactive) |
| CC12CC3C(CC1SCC(=O)O2)C3(C)C (configuration not stated) | > 100 µM (inactive) |  | > 100 µM (inactive) | > 100 µM (inactive) | > 100 µM (inactive) |  |  | > 100 µM (inactive) | > 100 µM (inactive) | > 100 µM (inactive) |  | > 100 µM (inactive) | > 100 µM (inactive) | > 100 µM |  |  | > 100 µM (inactive) |

From ChEMBL document CHEMBL1201862, “PubChem BioAssay data set” (2004)
